In patent US11795181B2, “Basic copper gluconate” (JOST CHEMICAL CO., priority 2020, dated 2023):

Experiments:
Aqueous solubility = type: physicochemical; conditions: in water
Excerpt: However, at higher concentrations (i.e., 30% and above), solutions are prone to secondary redox reactions if left to sit for prolonged periods in the open air. Copper (II) slowly oxidizes gluconic acid producing a red precipitate of cuprous oxide (Cu2O). […] This is less evident in the 25% solution of basic copper gluconate than in the remaining, higher percentage, solutions.

[1] = background statement; cited from earlier work

| Structure (SMILES) | water solubility (Aqueous solubility) | aqueous solubility (in words) [1] |
| --- | --- | --- |
| O=C([O][Cu][OH])C(O)C(O)C(O)C(O)CO (centres unmarked) [Basic copper gluconate] | over 50 g/100 g water |  |
| O=C([O-])[C@H](O)[C@@H](O)[C@H](O)[C@H](O)CO.O=C([O-])[C@H](O)[C@@H](O)[C@H](O)[C@H](O)CO.[Cu+2] [copper gluconate, Copper gluconate] |  | excellent aqueous solubility |
